Data: patent US20050250853A1, “Beta-tubulin inhibitors” (priority 1999, published 2005)
Entries after “also recorded” stand apart in the source; their conditions may differ. Like-named read-outs stand apart in the source and are kept apart here. Marks after values point to notes of the source that are not given here.

Assays:
MDA-MB-231 cells [1] = experiment: cells; type: cell-based, human; settings: for IC50: MTT assay, mean ± SD, read-out: IC50 (μM) MDA-MB-231
Procedure: (§1) Human breast carcinoma cell line, MDA-MB-231, was obtained from the American Type Culture Collection (ATCC HTB-26; Bethesda, Md.). MDA-MB-231 cells were grown in RPMI 1640 medium supplemented with 10% bovine calf serum (Hyclone, Road Logan, Utah). Wild-type Chinese Hamster Ovary cells (CHO-10001) (7), colchicine- and vinblastine-resistant (CHO-VV 3-2) (8) and taxol-resistant (CHO-TAX 5-6) cells (9) were generously provided by Dr. Fernando Cabral (University of Texas Medical School, Houston, Tex.). These cells were cultured in RPMI 1640 containing 10% fetal bovine serum. SK—N—SH human neuroblastoma cells, (ATCC HTB-11; Bethesda, Md.) were cultured in MEM medium supplemented with 2 mM L-glutamine, 1.5 g/liter sodium bicarbonate, 0.1 mM non-essential amino acids, 1 mM sodium pyruvate and 10% fetal bovine serum. Cells were cultured in a humidified atmosphere at 37° C. in 5% CO2.
(§2) Cytotoxicity was assessed using the MTT assay (3-(4,5-dimethylthiazol-2-yl)-2,5-diphenyltetrazolium bromide) as described by Carmichael et al. (12).

[2] = Kinetics of alkylation of 4-(4-nitrobenzyl)pyridine (colorimetric assay); type: physicochemical; settings: 80° C., pH 4.3, absorbance at 570 nm, linear regression, mean ± SD
Procedure: The rate constant of alkylation (K′) of CEU derivatives and chlorambucil was evaluated by a […] assay as described by Bardos et al (13). Briefly, 1 ml of a 10% (v/v) solution of 4-(4-nitrobenzyl)pyridine in ethanol and 1 ml of 50 mM sodium acetate (pH 4.3) were added to an ethanol solution (95%) containing 400 nmol per ml of either chlorambucil or CEU and heated to 80° C. in a shaking water bath for 60, 90, 120 or 150 min. The reaction was stopped by cooling the mixtures on ice for 5 min. Then, 1.5 ml of 0.1 M KOH: ethanol (1:2, v/v) were added to the reaction mixture. Samples were vortexed for 12 sec and set aside for 2.5 min prior to reading the absorbance at 570 nm. The values were compared with those obtained using a blank sample containing all reagents except the alkylating agent.

[3] = system: CHO 10001 cells (wild-type); experiment: MTT cytotoxicity on wild-type CHO cells; type: cell-based, Chinese hamster; settings: Cricetulus griseus, CHO10001, 120 h, read-out: IC50 CHO 10001
Procedure: as §1, with “Wild-type Chinese Hamster Ovary cells (CHO-10001) (7), colchicine- and vinblastine-resistant (CHO-VV 3-2) (8) and taxol-resistant (CHO-TAX 5-6) cells (9) were generously provided by Dr. Fernando Cabral (University of Texas Medical School, Houston, Tex.).” left out
as §2
(§3) The cytotoxicity of 4-tBCEU, 4-iPCEU and 4-sBCEU in two CHO cell lines having differential sensitivity to antmicrotubule agents was evaluated. These cell lines are derived from parental CHO-10001 cells and express mutated tubulins.

CHO TAX 5-6 cells = experiment: MTT cytotoxicity on taxol-resistant CHO cells expressing mutated tubulin; type: cell-based, Chinese hamster; settings: Cricetulus griseus, CHO-TAX 5-6, 120 h, read-out: IC50 CHO TAX 5-6
Procedure: as §1, with “Wild-type Chinese Hamster Ovary cells (CHO-10001) (7), colchicine- and vinblastine-resistant (CHO-VV 3-2) (8) and taxol-resistant (CHO-TAX 5-6) cells (9) were generously provided by Dr. Fernando Cabral (University of Texas Medical School, Houston, Tex.).” left out
as §2, §3

CHO VV 3-2 cells = experiment: MTT cytotoxicity on vinblastine- and colchicine-resistant CHO cells expressing mutated tubulin; type: cell-based, Chinese hamster; settings: Cricetulus griseus, CHO-VV 3-2, 120 h, read-out: IC50 CHO VV 3-2
Procedure: as §1, with “Wild-type Chinese Hamster Ovary cells (CHO-10001) (7), colchicine- and vinblastine-resistant (CHO-VV 3-2) (8) and taxol-resistant (CHO-TAX 5-6) cells (9) were generously provided by Dr. Fernando Cabral (University of Texas Medical School, Houston, Tex.).” left out
as §2, §3

MDA-MB-231 cells [4] = experiment: Cell cycle analysis by propidium iodide flow cytometry; type: cell-based, human; settings: for speed of induction of cell cycle arrest in G2+M compared with 4-tBCEU: 30 μM, 24 or 48 h; for accumulation of cells in G2+M: CEU derivatives at 30 μM, 24 h, flow cytometry
Procedure: FIG. 1. Effect of CEU derivatives on cell cycle. Exponentially growing MDA-MB-231 cells were incubated in the absence or presence of 30 μM of either 4-tBCEU, 4-iPCEU or 4-sBCEU for 24 and 48 h, respectively, at 37° C. The cell cycle was evaluated using propidium iodide staining and flow cytometric analysis. Data are representative of three independent experiments.
Following incubation of MDA-MB-231 cells with 4-tBCEU, 4-iPCEU or 4-sBCEU, the cells were harvested, resuspended in 1 ml PBS and fixed by the addition of 2.4 ml of ice cold anhydrous ethanol. Then, 5×10^5 cells from each sample were centrifuged for 3 min at 1000×g. Cell pellets were resuspended in PBS containing 50 μg/ml of PI and 40 U/ml of ribonuclease A (Boehringer Mannheim, Laval, Calif.). Mixtures were incubated at room temperature for 30 min and cell cycle distribution was analyzed using an Epics Elite ESP flow cytometer (Coulter Corporation, Miami, Fla., USA).
The effect of CEU, namely 4-tBCEU, 4-PCEU and 4-sBCEU, on the cell cycle was analyzed. To this end, exponentially growing MDA-MB-231 cells were treated with 30 μM 4-tBCEU, 4-iPCEU or 4-sBCEU for 24 or 48 h followed by an evaluation of cell cycle distribution by flow cytometry using propidium iodide, a fluorescent DNA dye. […] Induction of mitosis blockage in prophase by CEU derivatives was confirmed by mitotic index analysis as described by Drouin (22).

β-tubulin [5] = experiment: Separation of soluble and polymerized tubulins, Western blot of β-tubulin; type: cell-based, human; settings: MDA-MB-231 cells, 30 μM, 24 h and 48 h; for formation of modified β-tubulin (second immunoreactive band of lower Mr): free tubulin fraction
Procedure: FIG. 2. Effects of CEU derivatives on microtubule depolymerization. Exponentially growing MDA-MB-231 cells were incubated in the absence or the presence of 30 μM of CEU derivatives including (A) 4-tBCEU, 4-iPCEU or 4-sBCEU for 24 and 48 h respectively; (B) 2-ECEU, 3-ECEU or 4-ECEU for 24 and 48 h; and (C) 4-tBEU, 4-iPEU, 4-sBEU, 4-tBCPU, CEU or 4-methoxyCEU for 48 h. Free tubulin and microtubule fractions were isolated and analyzed by Western blot. Data are representative of three different experiments.
Separation of soluble and polymerized tubulins from MDA-MB231 cells was carried out as described by Minotti et al. (14) with minor modifications. Briefly, after drug exposure, about 5×10^6 cells in 100-mm petri dishes were washed with PBS at 37° C. and harvested in 3 ml of PBS containing 0.4 μg/ml of taxol using a rubber policeman.
Cells were centrifuged and lysed using 250 μl of microtubule-stabilizing buffer (20 mM Tris-HCl, pH 6.8, 140 mM NaCl, 1 mM MgCl2, 2 mM EDTA, 0.5% Nonidet P-40 and 0.4 μg/ml taxol), and then transferred to 1.5 ml microcentrifuge tubes. Samples were centrifuged at 12,000×g for 10 min at 4° C. and the supernatants containing soluble tubulin were placed in separate microcentrifuge tubes containing 250 μl of 2× Laemmli sample buffer (15). Pellets containing the polymerized tubulin were resuspended in 250 μl of water, followed by two freeze/thawing cycles, and the addition of 250 μl of 2× Laemmli sample buffer. Samples were analyzed by SDS-PAGE and immunoassay was performed as described below.
Samples (1×10^5 cells) were analyzed by 10% SDS-PAGE using the Laemmli system (15). Membranes were then incubated with PBSMT (PBS, pH 7.4, 5% fat-free dry milk and 0.1% Tween-20) for 1 h at room temperature, and then with 1:500 monoclonal anti-β-tubulin (clone TUB 2.1, Sigma) or 1:400 anti (clone no. SDL.3D10, Sigma) for 1 h. […] Membranes were washed with PBSMT and incubated with 1:2500 peroxidase-conjugated anti-mouse immunoglobulin (Amersham Canada, Oakville, Canada) in PBSMT for 30 min. Detection of the immunoblot was carried out with the ECL Western blotting detection reagent kit (Amersham Canada, Oakville, Canada).

β-tubulin [6] = experiment: Protein alkylation by [urea-14C]-4-tBCEU in MDA-MB-231 cells (autoradiography, immunoblot, kinetics); type: cell-based, human
Procedure: FIG. 3. Protein alkylation induced by treatment with [urea-^14C]-4-tBCEU. (A) Post-nuclei protein extracts from MDA-MB-231 cells incubated with 30 or 100 μM of [urea-^14C]-4-tBCEU for 12 and 24 h. […] The protein extracts were analyzed by SDS-PAGE. […] Data are representative of four different experiments. The arrow points to β-tubulin.
FIG. 5. Kinetics of β-tubulin alkylation and microtubule disruption induced by [urea-^14C]-4-tBCEU. Exponentially growing MDA-MB231 cells were incubated with 30 μM [urea-^14C]-4-tBCEU for 0, 1, 4, 8, 12, 18, 24 and 48 h. (A) Free tubulin and microtubule fractions were isolated and analyzed by Western blotting; (B) [urea-^14C]-4-tBCEU-labeled proteins were visualized by autoradiography. Data are representative of three different experiments.
Cells (˜5×10^6) were incubated with 30 or 100 μM [^14C]-tBCEU for 12 or 24 h and then washed with PBS and harvested by scraping in lysis buffer (5 mM Hepes pH 7.4, 1 mM MgCl2, 10 mM KCl, 1 mM CaCl2, 1 mM PMSF, 1 mM benzamidine and 1 mM aprotinin). Cell lysates were homogenized using a tissue grinder and the final sucrose concentration of each sample was adjusted to 250 mM. Samples were centrifuged at 600×g for 10 min at 4° C. to isolate the post-nuclear supernatant. The pellets, containing nuclei and intact cells, were discarded and the post-nuclear supernatant was recentrifuged at 90,000 rpm using a Rotor TLA-100.1 in a Beckman TL-100 ultracentrifuge for 30 min to separate the cytosolic fraction (C) from the insoluble fraction (M) containing the membrane components and mitochondria. One volume of 2× Laemmli sample buffer was then added to the supernatant (C) and the pellet (M) was resuspended in 200 μl of Laemmli sample buffer. Samples were boiled for 5 min and kept at −20° C. until analysis.
Samples (1×10^5 cells) were analyzed by 10% SDS-PAGE using the Laemmli system (15). Membranes were then incubated with PBSMT (PBS, pH 7.4, 5% fat-free dry milk and 0.1% Tween-20) for 1 h at room temperature, and then with 1:500 monoclonal anti-β-tubulin (clone TUB 2.1, Sigma) or 1:400 anti (clone no. SDL.3D10, Sigma) for 1 h. […]

βIII-tubulin = molecular target: T1, βIII-tubulin (Homo sapiens, UniProt Q13509); experiment: Alkylation of βIII-tubulin in SK-N-SH cells; type: cell-based
T1 construct: SK—N—SH cells, which express significant amounts of neuronal-specific βIII-tubulin; endogenous in cells; host or cells: SK-N-SH (ATCC HTB-11)
Procedure: FIG. 7. Localization of the site of alkylation by CEU on β-tubulin. Exponentially growing SK—N—SH cells were incubated in the absence or the presence of 30 μM and 100 μM [urea-^14C]-4-tBCEU for 24 h and 48 h, respectively. Total protein extracts were separated electrophoretically on 10% polyacrylamide gels. […] Results are representative of two independent experiments.
as §1
Samples (1×10^5 cells) were analyzed by 10% SDS-PAGE using the Laemmli system (15). […]

[7] = Homo sapiens, MDA-MB-231, concentration inhibiting 50% of cell growth
[8] = concentration inhibiting 50% of cell growth

T1 sequence (Q13509 whole entry): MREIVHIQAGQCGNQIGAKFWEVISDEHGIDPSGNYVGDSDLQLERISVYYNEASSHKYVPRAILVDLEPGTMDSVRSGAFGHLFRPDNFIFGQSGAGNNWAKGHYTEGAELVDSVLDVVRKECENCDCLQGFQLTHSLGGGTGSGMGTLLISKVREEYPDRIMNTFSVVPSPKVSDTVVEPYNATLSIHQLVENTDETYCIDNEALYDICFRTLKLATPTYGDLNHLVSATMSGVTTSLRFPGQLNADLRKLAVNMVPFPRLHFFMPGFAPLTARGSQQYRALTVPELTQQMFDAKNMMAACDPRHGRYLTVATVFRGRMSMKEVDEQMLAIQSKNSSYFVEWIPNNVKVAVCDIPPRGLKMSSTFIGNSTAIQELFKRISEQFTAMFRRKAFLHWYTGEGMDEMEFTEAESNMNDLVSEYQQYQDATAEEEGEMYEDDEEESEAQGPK
T1 sequence (P68363 whole entry partner): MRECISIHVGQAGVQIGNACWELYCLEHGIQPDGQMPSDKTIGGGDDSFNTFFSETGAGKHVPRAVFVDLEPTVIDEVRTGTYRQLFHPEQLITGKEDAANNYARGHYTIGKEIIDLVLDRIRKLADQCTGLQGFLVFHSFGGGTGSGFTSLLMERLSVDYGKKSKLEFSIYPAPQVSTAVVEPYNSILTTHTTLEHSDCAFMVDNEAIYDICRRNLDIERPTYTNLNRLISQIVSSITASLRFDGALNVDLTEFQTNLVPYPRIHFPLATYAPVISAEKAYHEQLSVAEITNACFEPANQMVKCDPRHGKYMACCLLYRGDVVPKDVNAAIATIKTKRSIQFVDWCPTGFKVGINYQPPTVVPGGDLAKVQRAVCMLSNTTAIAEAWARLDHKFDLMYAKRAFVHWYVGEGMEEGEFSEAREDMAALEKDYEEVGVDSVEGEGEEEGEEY

Structure (SMILES)	cytotoxicity in words (active / inactive CEU) (MDA-MB-231 cells [1])	IC50 (MDA-MB-231 cells [1]; [7]) [µM]	IC50 (MDA-MB-231 cells [1]; [8]) [µM]	K′ (constant of alkylation of 4-(4-nitrobenzyl)pyridine) [2]	IC50 [3] [nM]	IC50 (CHO TAX 5-6 cells) [nM]	IC50 (CHO VV 3-2 cells) [nM]	speed of induction of cell cycle arrest in G2+M compared with 4-tBCEU (MDA-MB-231 cells [4])	accumulation of cells in G2+M (MDA-MB-231 cells [4])	microtubule depolymerization (β-tubulin [5])	formation of modified β-tubulin (second immunoreactive band of lower Mr) (β-tubulin [5])	incubation time at which modified β-tubulin appears (immunoblot) (β-tubulin [6]; 30 μM (FIG. 5A)) [h]	incubation time at which 14C-labeled modified β-tubulin appears (autoradiography) (β-tubulin [6]; 30 μM (FIG. 5B)) [h]	incubation time to complete microtubule disruption (β-tubulin [6]; 30 μM, Western blot (FIG. 5A)) [h]	alkylation of βIII-tubulin (βIII-tubulin; 30 and 100 μM, 24 h and 48 h, autoradiography)	migration on SDS-PAGE of βIII-tubulin (βIII-tubulin; Western blot (FIG. 7A))
CC(C)c1ccc(NC(=O)NCCCl)cc1 [Example 4-iPCEU, 4-iso-propyl[3-(2-chloroethyl)ureido]benzene]	active	2	2.2 ± 0.3	3.0 ± 0.1^a	4400 ± 200	2000 ± 100	7700 ± 400	more rapidly	significant accumulation of cells in the G2+M	complete microtubule depolymerization	second immunoreactive band; also recorded: slighly faster than for 4-tBCEU	–	–	–	–	–
CCC(C)c1ccc(NC(=O)NCCCl)cc1 (stereo not drawn) [Example 4-sBCEU, 4-sec-butyl[3-(2-chloroethyl)ureido]benzene]	active	2	2.3 ± 0.1	3.1 ± 0.3^a	5000 ± 200	2100 ± 100	8200 ± 400	more rapidly	significant accumulation of cells in the G2+M	complete microtubule depolymerization	second immunoreactive band; also recorded: slighly faster than for 4-tBCEU	–	–	–	–	–
CC(C)(C)c1ccc(N[14C](=O)NCCCl)cc1 [[urea-^14C]-4-tBCEU]	–	–	–	–	–	–	–	–	–	–	–	12	1 to 4	8 to 12	βIII-tubulin is not alkylated	does not alter migration of the β-tubulin on SDS-PAGE
